Laboratory results from patent US20160128336A1, “MICROBIAL AGRICULTURE” (DSM IP ASSETS B.V., priority 2013, published 2016).

System: Colletotrichum gloeosporioides (CBS272.51)
Assay: Agar plug bio-assay on YME agar, fungal colony radius towards Streptomyces or natamycin plug
Type: cell-based
Details: Table 7; 10 ppm natamycin in agar plug (5% w/w methanol), 7 days at 28° C.
Description: Three fungal plant pathogens were tested against the selected S. natalensis strains: Fusarium oxysporum f.sp. lycopersici (CBS414.90), Colletotrichum gloeosporioides (CBS272.51) and Alternaria alternata (CBS103.33). Fusarium oxysporum f.sp. lycopersici is a soil borne fungus causing yield loss in e.g. tomato crops (Fusarium Wilt). Colletotrichum gloeosporioides causes e.g. anthracnose, a plant disease recognizable by dark brown lesions on leaves and fruits. Alternaria alternata is a worldwide occurring saprophyte that can cause phytopathogenic reactions in economically important host plants. The selected S. natalensis strains were tested against these fungal plant pathogens as described below.
Frozen vials (glycerol stocks) or freeze dried tubes from the selected S. natalensis strains were transferred to 100 ml baffled Erlenmeyer flasks containing 20 ml of Yeast Malt Extract broth (YME). […]
The bio-assay was done as follows. […] After 7 days the radius of the fungal colony was measured in the direction of the opposite agar plug (Streptomyces sample). […] The inhibition zone (in percentage) was calculated by using the following formula: 100% * (r0-r1)/r0, wherein r0is the radius (in mm, corrected for the plug radius) of the fungal colony from the control sample and wherein r1 is the radius (in mm, corrected for the plug radius) of the fungal colony from the Streptomyces inhibited sample. […]

**Q.** `C[C@@H]1C/C=C/C=C/C=C/C=C/[C@H](O[C@@H]2O[C@H](C)[C@@H](O)[C@H](N)[C@@H]2O)C[C@@H]2O[C@](O)(C[C@@H](O)C[C@H]3O[C@@H]3/C=C/C(=O)O1)C[C@H](O)[C@H]2C(=O)O` [Natamycin, natamycin] was tested. Which “Average inhibition zone (in %)” value did it give?
**A.** not as high
